Experimental data taken from patent US8481708B2, “snRNA gene-like transcriptional units and uses thereof” (Università degli Studi di Genova, priority 2005, dated 2013).

System: RNA Polymerase III
Assay: Promoter activity transfection assay with Pol III inhibitor ML-60218
Format: cell-based, human
Conditions: after 24 hours of cell treatment with ML-60218 (20 μM); hairpin constructs with novel promoters
Protocol: For transient transfections Hela cells (grown in DMEM supplemented with 10% FCS), were grown in multiwell Petri dishes 16 hours before transfection. The expression [21A, 21A(1), 21A(2), 21A(3)] constructs containing the regions of interest cloned in the pTopo vectors (Invitrogen) were introduced into the cells using the Fugene 6 transfection reagent (Roche) according to the manufacturer's instructions. A plasmid Expressing Luciferase was used as control of transfection efficiency (to which all the results were normalized). 24, 48 and 72 hours after transfection cells were harvested and firely luciferase activity was measured by Dual-Luciferase reporter assay system (Promega). manufacturer's protocol.

## Cc1c(-c2cc(NS(=O)(=O)c3ccccc3Cl)n(C)n2)sc2ccc(Cl)cc12 [ML-60218]
  luciferase signal: increased
